# Measured values taken from publication PMC5729429, “Gimatecan exerts potent antitumor activity against gastric cancer in vitro and in vivo via AKT and MAPK signaling pathways” (Journal of Translational Medicine, 2017).
# Counter-ions that a name gives are not always drawn.
# What was measured:
# SNU-1 cells = assay: Cell viability assay (CCK-8), SNU-1; assay type: cell-based; details: Homo sapiens, SNU1, Fig. 1a 48 h exposure, 0–1 µM, read-out: IC50 antiproliferative effect
# Method: (§1) Human GC cell lines SNU-1, HGC27 and MGC803 were purchased from Peking Union Medical College, and the NCI-N87 cell line was a gift from You-yong Lv, Ph.D. (Peking University Cancer Hospital and Institute). Cells were cultured in RPMI 1640 medium and Dulbecco’s Modified Eagle Medium (Gibco-BRL, MD, USA), respectively, supplemented with 10% fetal bovine serum (Gibco-BRL), 100 U/ml penicillin (Gibco-BRL) and […] streptomycin (Gibco-BRL). Cells were incubated in a humidified incubator (37 °C) supplemented with 5% CO2.
# (§2) SNU-1, HGC27, MGC803 and NCI-N87 cells (5000 cells/well) were seeded in 96-well plates and incubated overnight in complete medium, followed by exposure to gimatecan (0–1 µM) or irinotecan (0–1 µM) for 24, 48, or 72 h. Cell viability was measured using a Cell Counting Kit-8 (Dojindo, Kumamoto, Japan) according to the manufacturer’s instructions. Absorbance at 450 nm was measured using a microplate spectrophotometer. All experiments were repeated at least three times.
# HGC27 cells = assay: Cell viability assay (CCK-8), HGC27; assay type: cell-based; details: Homo sapiens, HGC-27, Fig. S1A 48 h exposure, 0–1 µM, read-out: IC50 antiproliferative effect
# Method: as §1, §2
# Ki-67 in GC PDX tissues = assay: Immunohistochemistry staining of Ki-67 in xenograft tissues; assay type: in vivo, NOD/SCID mice; details: day 22 of treatment
# Method: After mice were sacrificed, xenograft tissues were isolated, and formalin-fixed paraffin embedded (FFPE) tissue sections were prepared. After deparaffinization, hydration, endogenous peroxidase treatment, and retrieval, 4-μm-thick FFPE sections were incubated with primary antibodies (1:100) overnight at 4 °C. The signal was assayed after incubation with IgG-HRP polymer (ZSGB-BIO, Beijing, China) and diaminobenzidine substrate. Sections were interpreted by pathologists from the Department of Pathology of Peking University Cancer Hospital who were blinded to this study. The scoring standard of Ki-67 was consistent with a previous report.
# A PDX model was established by subcutaneously transplanting tumor tissues of a patient into NOD/SCID mice and PDX 1–5 indicated PDX models from 5 different GC patients. PDX tissues were subcutaneously inoculated into mice, and when the tumor size reached 150–250 mm^3, mice (n = 5 in each group) were treated with buffer control or inhibitors. Tumor volumes were presented as mean ± SD. The antitumor activity is depicted by tumor growth inhibition (TGI). […] (ΔT = tumor volume change of the drug-treated group, ΔC = tumor volume change of the control group on the final day of the study). *p < 0.05, **p < 0.01, ***p < 0.001. b Immunohistochemical staining for Ki-67 of xenografts on day 22 of treatment from four PDX models. The ki-67 index, marker of cell proliferation, was calculated as the proportion of positive tumor cell nuclei in all tumor cells examined and labeled in red in the images. Scale bar represents 100 µm TEXT PRINTED IN THE PICTURE: (b) Vehicle: PDX 2: 100%; PDX 3: 70%; PDX 4: 70%; PDX 5: 40% | (b) Irinotecan: PDX 2: 60%; PDX 3: 70%; PDX 4: 60%; PDX 5: 50% | (b) Gimatecan: PDX 2: 60%; PDX 3: 10%; PDX 4: 40%; PDX 5: 10% DOUBTS OF THE COPYIST ABOUT THIS PICTURE: Vehicle, PDX 3: 70% or 20% (blurred red print on the image) / Vehicle, PDX 4: 70% or 20% / Vehicle, PDX 5: 40%, first digit blurred / Irinotecan, PDX 2: 60% or 80% or 50% / Irinotecan, PDX 3: 70% or 20% / Irinotecan, PDX 4: 60% or 50% or 80% / Irinotecan, PDX 5: 50% or 60% or 30% / Gimatecan, PDX 2: 60% or 50% or 80% / Gimatecan, PDX 4: 40%, first digit blurred / The measure of the percentages in panel b is not printed in the picture
# DNA TopI = assay: Western blot of DNA TopI expression in GC cells; assay type: cell-based, human; details: SNU-1, HGC27 and NCI-N87; 48 h; gimatecan at 100 nM or more; irinotecan even at high concentrations
# Method: SNU-1, HGC27 and NCI-N87 cells were starved in serum-free medium overnight, exposed to inhibitors for 48 h and harvested at 70–80% confluence. Total protein was extracted from cells or xenograft tissues on ice, using RIPA Lysis Buffer (Beyotime, Shanghai, China) supplemented with complete protease inhibitor and phosphatase inhibitor cocktail (Roche, Basel, Switzerland). Protein concentration was measured using a BCA Protein Assay Kit (Beyotime, Shanghai, China), and 50 μg protein from each sample was separated by 10% SDS-PAGE. After transfer to nitrocellulose membranes (GE Healthcare, Piscataway, NJ), samples were incubated with corresponding primary antibodies diluted in 5% BSA at 4 °C overnight and then with secondary antibodies at room temperature for 1 h. Proteins were visualized with a chemiluminescent detection system (GE Healthcare), using ECL plus Western blot reagents (GE Healthcare). Western-blotting bands were quantified and normalized by ImageJ software.
# Cells were starved in serum-free medium overnight, exposed to gimatecan or irinotecan for 48 h and harvested at 70–80% confluence. Total protein of SNU-1 and NCI-N87 was extracted and the expression of TopI, pAKT, pMEK, pERK, p-p38 MAPK and pJNK2 were assessed by western-blotting followed by quantification and normalization by ImageJ. All data are mean ± SD of three independent experiments. Compared with controls, *p < 0.05
Structure (SMILES),IC50 (SNU-1 cells),IC50 (HGC27 cells),"Ki-67 (%) (Ki-67 in GC PDX tissues; PDX model 2, control 100)","Ki-67 (%) (Ki-67 in GC PDX tissues; PDX model 3, control 70)","Ki-67 (%) (Ki-67 in GC PDX tissues; PDX model 4, control 70)","Ki-67 (%) (Ki-67 in GC PDX tissues; PDX model 5, control 40)",expression of DNA TopI (DNA TopI)
"CC[C@@]1(O)C(=O)OCc2c1cc1n(c2=O)Cc2c-1nc1ccccc1c2/C=N/OC(C)(C)C [Gimatecan, 7-t-butoxyiminomethylcamptothecin]",1.95 nM,1.63 nM,60%,10%,40%,10%,significantly inhibited
"CCc1c2c(nc3ccc(OC(=O)N4CCC(N5CCCCC5)CC4)cc13)-c1cc3c(c(=O)n1C2)COC(=O)[C@]3(O)CC [Irinotecan, irinotecan hydrochloride]",3250 nM,152 nM,60%,70%,60%,50%,little effect
